Molecular target: DNA gyrase subunit A/B (Staphylococcus aureus, UniProt P0A0K8+P20831)
Experiment: Inhibition of Staphylococcus aureus DNA gyrase supercoiling activity

DNA gyrase subunit A/B, sequence (P20831 whole entry): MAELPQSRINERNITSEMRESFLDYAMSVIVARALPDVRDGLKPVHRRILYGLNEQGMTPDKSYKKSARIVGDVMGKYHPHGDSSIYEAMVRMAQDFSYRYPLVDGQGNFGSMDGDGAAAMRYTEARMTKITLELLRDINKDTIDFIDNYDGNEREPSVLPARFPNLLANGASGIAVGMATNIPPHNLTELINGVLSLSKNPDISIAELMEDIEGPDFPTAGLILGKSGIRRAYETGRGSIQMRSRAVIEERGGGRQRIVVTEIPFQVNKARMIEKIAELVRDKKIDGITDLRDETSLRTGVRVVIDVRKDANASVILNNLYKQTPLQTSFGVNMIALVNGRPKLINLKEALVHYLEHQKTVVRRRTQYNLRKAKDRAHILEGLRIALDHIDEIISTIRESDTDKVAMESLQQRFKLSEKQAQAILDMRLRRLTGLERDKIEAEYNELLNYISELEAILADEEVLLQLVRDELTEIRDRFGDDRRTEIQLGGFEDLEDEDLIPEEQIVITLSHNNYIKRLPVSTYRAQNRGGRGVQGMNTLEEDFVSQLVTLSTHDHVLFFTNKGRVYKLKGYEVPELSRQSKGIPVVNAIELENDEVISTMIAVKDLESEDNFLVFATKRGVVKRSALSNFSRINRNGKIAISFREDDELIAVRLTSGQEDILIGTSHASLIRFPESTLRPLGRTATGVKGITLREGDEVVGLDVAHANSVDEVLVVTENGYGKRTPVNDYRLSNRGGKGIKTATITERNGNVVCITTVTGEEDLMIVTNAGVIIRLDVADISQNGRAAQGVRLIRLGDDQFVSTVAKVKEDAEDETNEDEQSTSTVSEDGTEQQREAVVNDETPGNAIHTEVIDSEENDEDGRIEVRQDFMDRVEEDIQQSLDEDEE
DNA gyrase subunit A/B, sequence (P0A0K8 whole entry): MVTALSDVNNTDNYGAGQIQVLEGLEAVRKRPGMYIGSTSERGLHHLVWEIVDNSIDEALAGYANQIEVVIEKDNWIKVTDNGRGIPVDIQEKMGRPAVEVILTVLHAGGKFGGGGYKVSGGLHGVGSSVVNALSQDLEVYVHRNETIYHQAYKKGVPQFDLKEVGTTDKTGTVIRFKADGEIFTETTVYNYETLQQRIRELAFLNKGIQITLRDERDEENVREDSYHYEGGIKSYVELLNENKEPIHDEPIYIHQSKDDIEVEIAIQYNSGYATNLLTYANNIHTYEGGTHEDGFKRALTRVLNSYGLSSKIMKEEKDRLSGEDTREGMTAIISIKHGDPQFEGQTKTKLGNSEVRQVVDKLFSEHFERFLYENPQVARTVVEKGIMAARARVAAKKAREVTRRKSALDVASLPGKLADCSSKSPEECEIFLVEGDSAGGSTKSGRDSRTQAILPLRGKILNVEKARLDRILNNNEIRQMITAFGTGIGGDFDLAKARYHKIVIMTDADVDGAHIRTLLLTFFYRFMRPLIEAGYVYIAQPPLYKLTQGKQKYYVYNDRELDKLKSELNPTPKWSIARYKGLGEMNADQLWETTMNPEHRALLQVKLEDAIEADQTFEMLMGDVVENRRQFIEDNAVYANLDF

| SMILES | IC50 [nM] |
| --- | --- |
| CCC(=O)O/N=C(/C)N1N=C(C)CC1c1ccccc1OCc1ccc(F)cc1 (stereo not drawn) | > 314000 |
| CC1=NN(/C(C)=N\OC(=O)c2cccnc2)C(c2ccc(OCc3ccc(F)cc3)cc2)C1 (stereo not drawn) | 7830 |
| COC1CC(c2ccccc2)=NN1/C(C)=N\OC(=O)c1ccco1 (stereo not drawn) | 12200 |
| COC1CC(c2ccccc2)=NN1/C(C)=N\OC(=O)c1ccc(C(F)(F)F)cc1 (stereo not drawn) | 308 |
| C/C(=N/OC(=O)c1ccco1)N1N=C(c2ccc(Cl)cc2Cl)CC1c1ccccc1F (stereo not drawn) | 271 |
| C=CC(=O)O/N=C(/C)N1N=C(c2ccc(Cl)cc2Cl)CC1c1ccccc1F (stereo not drawn) | 1180 |
| C/C(=N/OC(=O)c1ccco1)N1N=C(c2ccc(Cl)cc2Cl)CC1c1ccc(C(F)(F)F)cc1 (stereo not drawn) | 979 |
| CC1=NN2C(C1)c1ccccc1CC2(C)C (stereo not drawn) | 1160 |
